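In this assay, cells in 96-well plates receive the compound at five concentrations for 48 hours. Endpoints are linearly interpolated between the surrounding concentrations. GI50 = concentration required for 50% inhibition of growth.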 Calls of active or inactive are those of the source. Cut-off read from the data, not from the text of the source: active = GI50 up to about 1.1 µM and inactive = higher.

Test systems include Malme-3M; UACC-62; SNB-75; TK-10; COLO 205; SK-MEL-2; HCT-15; M14; A498; HOP-62; CCRF-CEM; HT-29; MOLT-4; KM12; UO-31; IGROV-1; HCT-116; SR.
What all share (assay): NCI anticancer screen, dose series, 48 h

With `O=C(CCCCCCCCC(=O)OCC1OC(n2cnc3c(=O)[nH]cnc32)C(O)C1O)OCC1OC(n2cnc3c(=O)[nH]cnc32)C(O)C1O` (stereo unspecified), the GI50 in the test with Malme-3M, in the test with UACC-62, in the test on SNB-75, in the test on TK-10, in the test with COLO 205 and with SK-MEL-2 was > 100 µM (inactive) throughout. In addition, the GI50 was above 100 µM in the test on HCT-15; > 100 µM (inactive) with M14; > 100 µM (inactive) in the test on A498; > 100 µM (inactive) in the test with HOP-62; > 100 µM (inactive) with CCRF-CEM; > 100 µM (inactive) in the test on HT-29. The GI50 in the test with MOLT-4, with KM12, in the test with UO-31, with IGROV-1 and in the test on HCT-116 was > 100 µM (inactive) throughout.
For `C=CCNC(=S)N1CC(C)C(=O)Nc2ccccc21` (stereo unspecified), the GI50 was > 100 µM (inactive) with Malme-3M; > 100 µM (inactive) in the test on UACC-62; 35.5 µM (inactive) in the test with SNB-75; > 100 µM (inactive) with TK-10; > 100 µM (inactive) in the test on COLO 205; > 100 µM (inactive) with SK-MEL-2. Also, the GI50 in the test with HCT-15 was above 100 µM; with M14 it was > 100 µM (inactive); in the test with HOP-62, > 100 µM (inactive); with CCRF-CEM it was > 100 µM (inactive); in the test on SR, > 100 µM (inactive); with HT-29 it was > 100 µM (inactive). The GI50 in the test with MOLT-4, in the test on KM12, with UO-31, with IGROV-1 and with HCT-116 was > 100 µM (inactive) each time.
Regarding `N#Cc1nc(C2OC(COC(=O)c3ccccc3)C(OC(=O)c3ccccc3)C2OC(=O)c2ccccc2)oc1N` (stereo unspecified), the GI50 in the test with Malme-3M was 84.3 µM (inactive); with UACC-62 it was 38.7 µM (inactive); with SNB-75 it was 11.3 µM (inactive); in the test with TK-10, 63.5 µM (inactive); in the test with COLO 205 it was 61.4 µM (inactive); in the test with SK-MEL-2 it was 27.3 µM (inactive). Also, the GI50 was 16.7 µM in the test on HCT-15; 89.7 µM (inactive) with M14; > 100 µM (inactive) with A498; > 100 µM (inactive) with HOP-62; 3.18 µM (inactive) in the test with CCRF-CEM; 9.16 µM (inactive) in the test with HT-29. For the same molecule, the GI50 with MOLT-4 is 5.6 µM (inactive); in the test with KM12, 18.3 µM (inactive); in the test on UO-31, 12 µM (inactive); with IGROV-1 it was > 100 µM (inactive); in the test with HCT-116, 16.5 µM (inactive).
As for `COc1cc2cccc(/N=C\c3ccccc3Cl)c2cc1OC`, the GI50 in the test with Malme-3M is > 100 µM (inactive); in the test with UACC-62, 66.5 µM (inactive); in the test with SNB-75 it was > 100 µM (inactive); in the test with TK-10 it was > 100 µM (inactive); in the test on COLO 205, > 100 µM (inactive); in the test with SK-MEL-2 it was > 100 µM (inactive). The GI50 is 25.5 µM in the test with HCT-15; > 100 µM (inactive) in the test with M14; > 100 µM (inactive) in the test on HOP-62; 22.8 µM (inactive) with CCRF-CEM; 3.94 µM (inactive) in the test on SR; 79.6 µM (inactive) with HT-29. Besides, the GI50 is > 100 µM (inactive) in the test with MOLT-4; > 100 µM (inactive) in the test with KM12; > 100 µM (inactive) in the test with UO-31; > 100 µM (inactive) in the test with IGROV-1; 80.7 µM (inactive) in the test on HCT-116.
For `CCN(CC)c1cccc2c1C1(O)CCC3(CC21)OCCCCO3` (stereo unspecified), the GI50 in the test with Malme-3M was > 100 µM (inactive); in the test with SNB-75 it was 36.5 µM (inactive); in the test with TK-10, > 100 µM (inactive); in the test on COLO 205 it was > 100 µM (inactive); with SK-MEL-2, > 100 µM (inactive); in the test on HCT-15, 66.8 µM. In addition, the GI50 is > 100 µM (inactive) in the test on M14; 56.2 µM (inactive) with A498; > 100 µM (inactive) with HOP-62; 90.4 µM (inactive) in the test with CCRF-CEM; 33.3 µM (inactive) in the test with HT-29; > 100 µM (inactive) with MOLT-4. For the same molecule, the GI50 is 57.8 µM (inactive) with KM12, > 100 µM (inactive) with UO-31, 67.1 µM (inactive) with IGROV-1 and 49.3 µM (inactive) with HCT-116.
With `CCNC(=O)O/N=C1\CCC2[C@@H]3CC=C4C[C@@H](OC5CCCCO5)CC[C@]4(C)C3CC[C@]12C` (stereo partly specified), the GI50 with Malme-3M was 1.02 µM (active); with UACC-62 it was 0.733 µM (active); with SNB-75, 1.91 µM (inactive); in the test on TK-10, 2 µM (inactive); with COLO 205 it was 0.964 µM (active); in the test on SK-MEL-2 it was 2.2 µM (inactive). Further, the GI50 in the test with HCT-15 was 1.63 µM; with M14, 1.71 µM (inactive); with A498, 34 µM (inactive); in the test on HOP-62 it was 22.3 µM (inactive); in the test on HT-29 it was 3.16 µM (inactive); in the test with MOLT-4, 1.61 µM (inactive). Moreover, the GI50 in the test on KM12 is 3.94 µM (inactive); with UO-31 it was 1.44 µM (inactive); in the test on IGROV-1, 3.16 µM (inactive); in the test with HCT-116, 4.8 µM (inactive).
For the molecule `COC(=O)C(Cc1ccccc1)NC(=O)Cn1ccnc1[N+](=O)[O-]` (stereo unspecified), the GI50 is 31.7 µM (inactive) in the test on Malme-3M; > 100 µM (inactive) in the test with UACC-62; 94.8 µM (inactive) with SNB-75; > 100 µM (inactive) in the test on TK-10; 77.3 µM (inactive) in the test on COLO 205; > 100 µM (inactive) in the test on SK-MEL-2. For the same molecule, the GI50 is above 100 µM with HCT-15; > 100 µM (inactive) in the test on M14; > 100 µM (inactive) in the test with A498; > 100 µM (inactive) in the test on HOP-62; > 100 µM (inactive) with CCRF-CEM; > 100 µM (inactive) in the test with HT-29. Besides, the GI50 with MOLT-4, in the test on KM12, in the test on UO-31 and in the test with IGROV-1 was > 100 µM (inactive) throughout.
For `CCCCCC[C@@H]1CCC2C(CO)[C@@H](O)CC[C@@H]2C1` (stereo partly specified), the GI50 is 18.8 µM (inactive) in the test with Malme-3M; 21.3 µM (inactive) in the test with UACC-62; 22.8 µM (inactive) in the test on SNB-75; 18.5 µM (inactive) in the test on COLO 205; 26.7 µM (inactive) in the test on SK-MEL-2; 19 µM with HCT-15. The GI50 was 17.5 µM (inactive) with M14; 18.3 µM (inactive) with HOP-62; 23.6 µM (inactive) in the test with CCRF-CEM; 22.5 µM (inactive) in the test with SR; 18.2 µM (inactive) in the test on HT-29; 18.2 µM (inactive) with MOLT-4. Also, the GI50 in the test with KM12 was 18.7 µM (inactive); in the test with UO-31, 20.7 µM (inactive); in the test with IGROV-1, 18.2 µM (inactive); in the test on HCT-116 it was 17.6 µM (inactive).
For the molecule `N#CC1(C2CC(=O)N(c3ccccc3)C2=O)CCCCC1=O` (stereo unspecified), the GI50 with Malme-3M was 0.498 µM (active); in the test with UACC-62, > 100 µM (inactive); with SNB-75, > 100 µM (inactive); in the test with TK-10, > 100 µM (inactive); with COLO 205 it was > 100 µM (inactive); in the test on HCT-15 it was above 100 µM. Moreover, the GI50 in the test with M14, in the test with CCRF-CEM, with SR, with HT-29, in the test with MOLT-4 and in the test on KM12 was > 100 µM (inactive) in each case. The GI50 in the test on UO-31 and in the test with IGROV-1 was > 100 µM (inactive) each time.
Consider `COc1ccc(C(c2ccccc2C(=O)O)c2ccc(OC)c3ccccc23)c2ccccc12`, for which the GI50 is 13.3 µM (inactive) in the test on Malme-3M; 4.71 µM (inactive) in the test on UACC-62; 19.9 µM (inactive) in the test on TK-10; 13 µM (inactive) with COLO 205; 8.63 µM in the test with HCT-15; 16.2 µM (inactive) with M14. Further, the GI50 in the test on A498 is 16.2 µM (inactive); in the test on HOP-62, 15.5 µM (inactive); with CCRF-CEM, 8.79 µM (inactive); in the test on HT-29, 11.9 µM (inactive); in the test on MOLT-4, 5.62 µM (inactive); in the test with KM12, 8.15 µM (inactive). The GI50 was 4.9 µM (inactive) in the test on UO-31 and 11.3 µM (inactive) in the test on IGROV-1.
On to `O=C(CSc1nnc(Cc2ccccc2)o1)Nc1ccc(Cl)cc1Cl`, for which the GI50 in the test with Malme-3M, with UACC-62, in the test on SNB-75, in the test with TK-10, with COLO 205 and with SK-MEL-2 was > 100 µM (inactive) in each case. In addition, the GI50 in the test on HCT-15 was above 100 µM; in the test on M14, > 100 µM (inactive); in the test with A498, > 100 µM (inactive); in the test with HOP-62, > 100 µM (inactive); in the test with CCRF-CEM, > 100 µM (inactive); in the test with HT-29, > 100 µM (inactive). The GI50 in the test with MOLT-4, in the test on KM12, with UO-31, with IGROV-1 and in the test on HCT-116 was > 100 µM (inactive) each time.
Consider `O=C(CC1(O)C(=O)Nc2ccccc21)c1ccccc1Cl` (stereo unspecified), for which the GI50 in the test on Malme-3M, in the test with UACC-62, in the test on SNB-75, in the test on TK-10, with COLO 205 and in the test on SK-MEL-2 was > 100 µM (inactive) throughout. Also, the GI50 in the test with HCT-15 was above 100 µM; with M14, > 100 µM (inactive); in the test with A498, > 100 µM (inactive); with HT-29, > 100 µM (inactive); with MOLT-4 it was > 100 µM (inactive); with UO-31 it was 64.9 µM (inactive). In addition, the GI50 in the test with IGROV-1 and with HCT-116 was > 100 µM (inactive) each time.

(Values after ChEMBL document CHEMBL1201862, “PubChem BioAssay data set” (2004).)
